Tests used:
[1] = system: ovalbumin-induced airway eosinophilia and neutrophilia in ovalbumin sensitized mice; test: Ovalbumin-induced airway eosinophil and neutrophil accumulation in mice; type: in vivo, BALB/c mice; details: 2 hr prior to final OVA challenge
Description: BALB/c mice (6-8 weeks old) were immunized with OVA (10 μg/mouse i.p.) on days 0 and 7. In order to elicit a local inflammatory response in the lung, mice were repeatedly challenged between days 13-15 with a nebulised solution of ovalbumin (10 mg/mL, 30 min exposure, De Vilibiss Ultraneb 2000). On day 17 each animal received via intra-tracheal administration of either vehicle or test compound 2 hr prior to the final OVA challenge. Animals were anaesthetized 8 hr later before undergoing a tracheotomy. BAL was obtained by instilling PBS (1 mL) into the lungs, which was then withdrawn. This procedure was repeated to provide approximately 2 mL of lavage fluid. Total cell numbers in the BALF samples were measured using a haemocytometer. Cytospin smears of the BALF samples were prepared by centrifugation at 200 rpm for 5 min at RT and stained using a DiffQuik stain system (Dade Behring) for differential cell counts. Cells were counted using oil immersion microscopy. Data is expressed as differential number of cells per mL of […] (mean±S.E.M).

[2] = system: neutrophils from COPD patients; test: CXCL8 release from neutrophils obtained from COPD patients; type: cell-based; details: Homo sapiens, Neutrophil; read-out: REC50, TNFα-induced CXCL8 in neutrophils from COPD patients
Description: The effects of treatment on CXCL8 release from neutrophils obtained from COPD patients were evaluated by an ELISA assay. All patients were recruited by Quintiles Limited (London, UK), and blood samples were delivered to Respivert Ltd. This study was approved by the local Ethics Committee, and all subjects gave written informed consent. Whole blood (30 mL) was mixed gently with ACD (5 mL; comprising: 7.36 g citric acid, 14.71 g sodium citrate, 9.91 g dextrose in 250 ml sterile, double distilled water) and 6% dextran (15 mL; diluted in 0.9% NaCl) to remove the red blood cells. The tubes were incubated at RT for 45 min, and the supernatant (white cell rich fraction) was then collected, leaving the red blood cells.
This fraction was centrifuged (10 min at 1200 rpm, 4° C.) with low braking. The supernatant was aspirated and the pellet was re-suspended in ice-cold, sterile double distilled H2O (10 mL), and 0.6 M KCl (4 mL) was added 30 seconds later. […]
Neutrophils were pre-incubated with test compounds or with DMSO vehicle for 1 hr and then stimulated with TNFα (10 ng/mL). Cell free supernatant was collected at 3 hr after TNFα stimulation, and CXCL8 was measured by ELISA using DuoSet ELISA development kit (R&D systems, Abingdon, UK). The IC50 values reported were determined from concentration-inhibition curves using XL-Fit (IDBS, Guildford, UK).

[3] = system: THP1 cells; test: Chemotaxis to MCP1; type: cell-based; details: Homo sapiens, THP-1; read-out: REC50, THP1 cell chemotaxis to MCP1
Description: As a means of assessing PI3K γ dependent cell function, THP1 cell chemotaxis to MCP-1 was evaluated using a 48 well-chemotaxis chamber. THP1 cells from a human leukemic monocyte lymphoma cell line, (purchased from ATCC Manassas, Va.) were maintained in RPMI 1640 (Invitrogen Ltd., Paisley, UK) with 10% FCS at 37° C. Cells were re-suspended in 0.5% BSA/RPM11640 (2×10^6 cells/mL) and incubated for 10 min at 37° C., 5% CO2. Cell suspension aliquots (500 μL) were then treated either with compounds in neat DMSO or with DMSO as vehicle (2.5 μL) for 1hr (37° C., 5% CO2).
MCP1 (50 nM) was prepared in 0.5% BSA/RPM11640. MCP1 solution (50 μL) was added to each well in the bottom plate of a 48-well chemotaxis chamber (AP48, NeuroProbe Inc., Gaithersburg, Md.). A polycarbonate membrane (8 μm) was mounted on the bottom chamber, and then the top plate was mounted on the bottom chamber and filter membrane. […]
A solution of MTT (50 μL) in 10% FCS phenol red-free RPM11640 was added to each well, and the plate was incubated for 2 hr (37° C., 5% CO2). Neat DMSO (100 μL) was added to each well to extract formazan formed from MTT and the plates were shaken lightly for 1 hr prior to measuring the absorbance at 595 nm (Varioskan® Flash, Thermo-Fisher Scientific). […] Relative EC50 values were determined from concentration-inhibition curves using XL-Fit (idbs, Guildford, UK).

[4] = system: LPS-induced airway neutrophilia in mice; test: LPS-induced airway neutrophil accumulation in mice; type: in vivo, BALB/c mice
Description: Non-fasted BALB/c mice (6-8 weeks old) were dosed with vehicle or with test compound by intra-tracheal administration (dose volume 20 μL) at time points T=−2 hr, −8 hr, or −12 hr with respect to the start of LPS treatment. The LPS was prepared in a solution of 0.5 mg/mL and aerosolised using a De Vibliss ultrasonic nebuliser 2000 (7 mL during 30 min exposure). At eight hr after LPS challenge, the trachea was cannulated and bronchoalveolar lavage fluid (BALF) extracted by infusing and then withdrawing PBS (1 mL) into the lungs via the tracheal catheter. This procedure was repeated to give a yield of approximately 2 mL lavage fluid. Total cell numbers in the BALF samples were measured using a haemocytometer. Cytospin smears of the BALF samples were prepared by centrifugation at 1200 rpm for 2 min at RT and stained using a DiffQuik stain system (Dade Behring) for differential cell counts. Cells were counted using oil immersion microscopy. Data are expressed as neutrophil number of cells per mL of BALF (mean±S.E.M).

[5] = 0.2 mg/mL intra-tracheal, pre-dose time 8 hr

For `COCCOCCOCC#Cc1cccc2nc(Cn3nc(-c4cc(O)cc(F)c4)c4c(N)ncnc43)n(Cc3ccccc3C(F)(F)F)c(=O)c12` [Compound (I), 2-((4-Amino-3-(3-fluoro-5-hydroxyphenyl)-1H-pyrazolo[3,4-d]pyrimidin-1-yl)methyl)-5-(3-(2-(2-methoxyethoxy)ethoxy)prop-1-yn-1-yl)-3-(2-(trifluoromethyl)benzyl)quinazolin-4(3H)-one], the “Cell numbers in BALF, Eosinophils, % inhibition” value ([1]; 0.05 mg/mL intra-tracheal) was 3.2 (20) %, the “Cell numbers in BALF, Neutrophils, % inhibition” value ([1]; 0.05 mg/mL intra-tracheal) was 0.4 (18) % and the “Cell numbers in BALF, Eosinophils, % inhibition” value ([1]; 0.2 mg/mL intra-tracheal) was 0.9 (85) %. For the same compound, the “Cell numbers in BALF, Neutrophils, % inhibition” value ([1]; 0.2 mg/mL intra-tracheal) was 0.5 (70) %, the Cell numbers in BALF, Eosinophils, % inhibition ([1]; 1 mg/mL intra-tracheal) was 91% and the Cell numbers in BALF, Neutrophils, % inhibition ([1]; 1 mg/mL intra-tracheal) was 80%. For the same compound, the EC50 [2] was 2.2 nM, the EC50 [3] was 33.9 nM and the “Neutrophil numbers in BALF, % inhibition” value ([4]; 0.05 mg/mL intra-tracheal, pre-dose time 2 hr) was 2.5 (19) %. The “Neutrophil numbers in BALF, % inhibition” value ([4]; 0.2 mg/mL intra-tracheal, pre-dose time 2 hr) was 1.4 (53) %, the “Neutrophil numbers in BALF (mean ± SEM)” value [4, 5] was 9.4 ± 2.0 ×10^5/mL and the “Neutrophil numbers in BALF, % inhibition” value [4, 5] was 45%. The “Neutrophil numbers in BALF, % inhibition” value ([4]; 0.2 mg/mL intra-tracheal, pre-dose time 12 h) was 23% and the Neutrophil numbers in BALF, % inhibition ([4]; 1.0 mg/mL intra-tracheal, pre-dose time 2 hr) was 68%.

Source: patent US20170334919A1, “2-((4-AMINO-3-(3-FLUORO-5-HYDROXYPHENYL)-1H-PYRAZOLO[3,4-D]PYRIMIDIN-1 -YL)METHYL)-3-(2-(TRIFLUORO-MET HYL)BENZYL)QUINAZOLIN-4(3H)-ONE DERIVATIVES AND THEIR USE AS PHOSPHOINOSITIDE 3-KINASE INHIBITORS” (RESPIVERT LTD., priority 2013, published 2017)
